This is an account of results in patent publication US20200165225A1, “BACE1 INHIBITORS FOR TREATMENT OF ALZHEIMER'S DISEASE” (NantBio, Inc., priority 2017, published 2020).

BACE-1, sequence (P56817 46-501): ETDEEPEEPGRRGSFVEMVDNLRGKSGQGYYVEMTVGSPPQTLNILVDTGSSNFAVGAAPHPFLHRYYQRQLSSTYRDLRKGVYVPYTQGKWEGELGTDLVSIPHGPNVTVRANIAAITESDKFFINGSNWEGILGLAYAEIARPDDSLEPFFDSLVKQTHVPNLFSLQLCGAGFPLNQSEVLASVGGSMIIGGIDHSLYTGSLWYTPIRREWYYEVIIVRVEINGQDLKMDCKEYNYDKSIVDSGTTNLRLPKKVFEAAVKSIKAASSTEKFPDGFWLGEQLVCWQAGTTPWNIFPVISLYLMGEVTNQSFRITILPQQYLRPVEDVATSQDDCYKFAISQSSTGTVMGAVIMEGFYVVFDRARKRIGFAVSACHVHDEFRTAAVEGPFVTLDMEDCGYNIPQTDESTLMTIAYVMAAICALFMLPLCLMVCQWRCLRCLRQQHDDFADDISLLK

This assay concerns the target BACE-1 (Homo sapiens, UniProt P56817). As to the kind of experiment: Inhibition of BACE cleavage of a P5-P5′ fluorescent peptide substrate containing the Swedish mutation cleavage site. It counts as biochemical. To be noted: fluorogenic P5-P5′ BACE-1 substrate; 30 minutes preincubation at room temperature; signal read every 30 minutes at 25° C. for 2 hr. On the procedure:
The compounds were evaluated for inhibition of BACE cleavage of a P5-P5′ fluorescent peptide substrate containing the Swedish mutation cleavage site. In detail, 4 μL of assay buffer was added to each well, followed by 2 μL of BACE-1 diluted in assay buffer to 7.5 ng/uL. Then, 2 μL of compound, at concentrations along an 11 pt. two-fold dilution series starting at 10 uM, or 0.5 uM, were added to the appropriated wells and incubated for 30 minutes at room temperature. For all dilutions of inhibitor, the compound stock solutions of 10 mM in DMSO were diluted to 50 uM in water; subsequent dilutions were in 0.5% DMSO. Afterwards, 2 μL of fluorogenic P5-P5′ BACE-1 substrate, diluted to 50 μM in assay buffer, were added to each well, after which the signal generated was read every 30 minutes at 25° C. for 2 hr.
As usually defined, the IC50 is the point on the concentration scale where inhibition reaches its midpoint. `CN1C(=O)C(c2cccc(-c3cncnc3)c2)(c2ccnc(C(F)F)c2)N=C1N` (centres unmarked) [Compound 1] displayed an IC50 of 30 nM.

In turn, `CN1C(=O)C(c2cccc(-c3cncnc3)c2)(c2ccnc(C(F)(F)F)c2)N=C1N` (centres unmarked) [Compound 2] registered an IC50 of 70 nM.

Compound `Cc1cc(C2(c3ccnc(C(F)(F)F)c3)N=C(N)N(C)C2=O)ccc1OC(F)F` (centres unmarked) [Compound 3] showed an IC50 of 9720 nM.

For the compound `CN1C(=O)C(c2ccc(C(F)(F)F)nc2)(c2cccc(-c3cncnc3)c2)N=C1N` (centres unmarked) [Compound 4], the IC50 was 980 nM.

Turning to `CN1C(=O)C(c2cccc(-c3cncnc3)c2)(c2cccc(C(F)(F)F)n2)N=C1N` (centres unmarked) [Compound 5], the IC50 was 7860 nM.

In turn, `CN1C(=O)C(c2ccc(C(F)F)nc2)(c2cccc(-c3cncnc3)c2)N=C1N` (centres unmarked) [Compound 6] yielded an IC50 of 940 nM.

Regarding `CN1C(=O)C(c2cccc(-c3cncnc3)c2)(c2cccc(C(F)F)n2)N=C1N` (centres unmarked) [Compound 7], inhibition was half-maximal at 500 nM (IC50).

The compound `CN1C(=O)C(c2cccc(-c3cncnc3)c2)(c2cccc(C(F)F)c2)N=C1N` (centres unmarked) [Compound 8] registered an IC50 of 170 nM.
